Results as given in patent publication US11253537B2, “Polypeptide having the ability to form connections of glucosyl units in alpha-1,3 on an acceptor” (INSTITUT NATIONAL DE RECHERCHE POUR L'AGRICULTURE, …, priority 2013, dated 2022).

B1: ΔPS ΔC-1313: form of α-1,3 BrS truncated of the signal peptide and C-terminal (position 1313) (protein)
chain: DTQTPVGTTQSQQDLTGQTGQDKPTTKEVIDKKEPVPQVSAQNVGDLSADAKTPKADDKQDTQPTNAQLPDQGNKQTNSNSDKGVKESTTAPVKTTDVPSKSVAPETNTSINGGQYVEKDGQFVYIDQSGKQVSGLQNIEGHTQYFDPKTGYQTKGELKNIDDNAYYFDKNSGNGRTFTKISNGSYSEKDGMWQYVDSHDKQPVKGLYDVEGNLQYFDLSTGNQAKHQIRSVDGVTYYFDADSGNATAFKAVTNGRYAEQTTKDKDGNETSYWAYLDNQGNAIKGLNDVNGEIQYFDEHTGEQLKGHTATVDGTTYYFEGNKGNLVSVVNTAPTGQYKINGDNVYYLDNNNEAIKGLYGINGNLNYFDLATGIQLKGQAKNIDGIGYYFDQNNGNGEYRYSLTGPVVKDVYSQHNAVNNLSANNFKNLVDGFLTAETWYRPAQILSHGTDWVASTDKDFRPLITVWWPNKDIQVNYLKLMQQIGILDNSVVFDTNNDQLVLNKGAESAQIGIEKKVSETGNTDWLNELLFAPNGNQPSFIKQQYLWNVDSEYPGGWFQGGYLAYQNSDLTPYANTNPDYRTHNGLEFLLANDVDNSNPVVQAEQLNWLYYLMNFGQITANDSNANFDSMRIDAISFVDPQIAKKAYDLLDKMYGLTDNEAVANQHISIVEAPKGETPITVEKQSALVESNWRDRMKQSLSKNATLDKLDPDPAINSLEKLVADDLVNRSQSSDKDSSTIPNYSIVHAHDKDIQDTVIHIMKIVNNNPNISMSDFTMQQLQNGLKAFYEDQHQSVKKYNQYNIPSAYALLLTNKDTVPRVFYGDMYQDYGDDLDGGQYMATKSIYYNAIEQMMKARLKYVAGGQIMAVTKIKNDGINKDGTNKSGEVLTSVRFGKDIMDAQGQGTAESRNQGIGVIVSNSSGLELKNSDSITLHMGIAHKNQAYRALMLTNDKGIVNYDQDNNAPIAWTNDHGDLIFTNQMINGQSDTAVKGYLNPEVAGYLAVWVPVGANDNQDARTVTTNQKNTDGKVLHTNAALDSKLMYEGFSNFQKMPTRGNQYANVVITKNIDLFKSWGITDFELAPQYRSSDGKDITDRFLDSIVQNGYGLSDRYDLGFKTPTKYGTDQDLRKAIERLHQAGMSVMADFVANQIYGLHADKEVVSAQHVNINGDTKLVVDPRYGTQMTVVNSVGGGDYQAKYGGEYLDTISKLYPGLLLDSNGQKIDLSTKIKEWSAKYLNGSNIPQVGMGYVLKDWNNGQYFHILDKEGQYSLPTQL
modifications: Delta PS, delta C-1313

Columns and labels:
Assay type in all cases: biochemical
[1] = Reaction of the enzyme on sucrose alone (HPAEC-PAD, HPSEC); details: no acceptor
Description: The determination of the enzymatic activity of the polypeptide according to the invention can be determined by methods known to those skilled in the art, such as by use of the High Performance Liquid Chromatography Technique on reaction products with the polypeptide of the invention (MOULIS et al., J. Biol. Chem, 2006) or assay of reducing sugars by the method in dinitrosalycilic acid (SUMNER & HOWELL, 1935). More specifically, this enzymatic activity is expressed in glucansucrase units which represents the amount of enzyme which liberates one μmol of fructose per minute at 30° C. with a concentration of 100 g·L−1 sucrose and a buffer at pH 5.2 comprising 50 mM sodium acetate. This activity is preferably determined by measuring the initial rate of production of reducing sugars (fructose) by using the DNS method (SUMNER & HOWELL). To do this, a standard range of 0-2 g·L−1 of fructose is established. During kinetics, 100 μl of reaction medium are then sampled and the reaction is stopped by adding an equal volume of reagent. The samples were then heated for 5 min at 95° C., cooled in ice, diluted in half with water and the absorbance is read at 540 nm.
To characterise the functional properties of this putative transglucosylase, the enzyme was first implemented on sucrose alone, a natural substrate of enzymes of the GH70 family.
More specifically, monosaccharides, disaccharides, and small oligosaccharides (degree of polymerisation less than 20) were separated and quantified by HPAEC-PAD (High Performance Anion Exchange Chromatography with Pulsed Amperometric Detection) on column Dionex CarboPac PA-100. A sodium acetate gradient of 6 to 300 mM in 36 min, containing 150 mM of sodium hydroxide used to separate glucose, fructose, sucrose, leucrose, isomaltooligosaccharides, etc. Standard ranges of 5, 10, 15 and 20 mg·kg-1 of these sugars were performed to allow quantification. These samples were diluted for a total sugar concentration of 25 mg·kg-1. […]

[2] = Acceptor reaction with sucrose and dextran 1500 Da; α-1,3 connections by proton NMR; details: for factor multiplying the activity of the enzyme on addition of dextran 1500 Da as acceptor: compared to the activity measured on sucrose alone
Protocol: While nothing presaged that this protein had still an activity, the latter (as well as its truncated form) was also incubated in the presence of sucrose and a linear dextran (glucan composed exclusively of α-1,6 bonds) of a molecular weight of 1500 Da.
(§1) We incubated for 16 h at 30° C., enzyme in sucrose (from 25 g/L to 170 g/L) in the presence of dextrans of variable molecular weight (from 1500 Da to 2.10^6 Da) and of varying concentration of 30 g/L to 100 g/L.; the sucrose/acceptor (M/M) ratio varies depending on the desired connection rate in α-1,3. The reaction medium was buffered with a solution with final sodium acetate with 50 mM, pH 5.2. A sample at initial and final times of the reaction was conducted, heated at 95° C. for 5 minutes to stop the reaction and analysed by various chromatographic (HPAEC-PAD, HPSEC) and structural (proton NMR) techniques.
More specifically, monosaccharides, disaccharides, and small oligosaccharides (degree of polymerisation less than 20) were separated and quantified by HPAEC-PAD (High Performance Anion Exchange Chromatography with Pulsed Amperometric Detection) on column Dionex CarboPac PA-100. A sodium acetate gradient of 6 to 300 mM in 36 min, containing 150 mM of sodium hydroxide used to separate glucose, fructose, sucrose, leucrose, isomaltooligosaccharides, etc. Standard ranges of 5, 10, 15 and 20 mg·kg-1 of these sugars were performed to allow quantification. These samples were diluted for a total sugar concentration of 25 mg·kg-1.
Analyses by HPSEC (High Performance Size Exclusion Chromatography-) were used to estimate the molecular weight of oligosaccharide populations or of polymers synthesised during the reactions. The separation was done using two columns SHODEX (OH-Pack SB-805 and 802.5) arranged in series. Solutions of 1, 2.5, 5 and 10 gL−1 sucrose, fructose, maltoheptaose, Dextran 11.3 kDa, 68.4 kDa, 503 kDa, 2000 kDa served as benchmarks. The samples were diluted 10 times to reach a maximum concentration of 10 g·kg-1. A solution of 0.45 M NaNO3+1% (v/v) ethylene glycol in 0.3 mL·min-1 is used as an eluent, and the samples should be diluted in the mobile phase. Column and precolumn were maintained at 70° C., detection is performed by refractometry.
(§2) For the NMR analyses, the synthesised polymers were stored at −80° C. overnight and then be freeze-dried (CHRIST ALPHA apparatus 2-4). 10 mg of the powder obtained are then dissolved in 0.5 mL of deuterated water and analysed by proton NMR. The 1H NMR spectra were acquired on a spectrometer BRUKER AVANCE (500 MHz). The data were then treated with the TOPSPIN 3.0 software.

[3] = Screening of a library of acceptors with sucrose; details: FOS and XOS as acceptors
Protocol: The enzyme α-1,3 BrS is put in the presence of its natural substrate (sucrose) and a panel of different acceptors, including dextrans connected in α-1.2 (BRISON et al., 2009), of mutans, of alternans, of reuterans, of fructans and of fructooligosaccharides, of polyphenols, of flavonoids, of amino acids. The reaction products are analysed by various chromatographic techniques (mass spectrometry, HPAEC-PAD) and by NMR.

[4] = Acceptor reaction with sucrose and higher molecular weight dextrans; proton NMR; details: dextran 68.4 kDa, 503 kDa and 2×10^6 Da
Protocol: as §1, §2
Tests were performed out on particular dextran 68.4 kDa, 503 kDa and 2×10^6 Da. Based on proton NMR analyses, the high molecular weight dextrans have 50% of α-1,3 bonds (FIGS. 7 and 8). Here again we find the comb-like structure described in the '80 s in the work on the native glucan produced by the strain.

Molecule	ability to produce polymers of glucosyl units from sucrose alone [1]	connection rate in α-1,3 on a dextran 1500 Da [2]	glycosylation of oligosaccharide acceptors [3]	factor multiplying the activity of the enzyme on addition of dextran 1500 Da as acceptor [2]	substitution rate (α-1,3) ([2]; sucrose/Dextran 1500 ratio 1/2)	rate of substitution (α-1,3) ([2]; sucrose/Dextran 1500 ratio 1/3)	degree of substitution (α-1,3) ([2]; sucrose/Dextran 1500 ratio above 1, increasing the substrate concentration)	degree of substitution (α-1,3) ([2]; sucrose/Dextran 1500 ratio greater than or equal to 1)	α-1,3 bonds of the high molecular weight dextrans after reaction [4]	rate of α-1,3 bonds according to the sucrose/dextran 1500 Da ratio, compared with the whole enzyme ([2]; truncated enzyme, same substrate (FIG. 6))
GH L. fallax: orthologue protein from Leuconostoc fallax KCTC 3537, about 54% overall identity with α-1,3 BrS	inability to polymerise the glucosyl units	37%								
α-1,3 BrS: transglucosylase of 1888 amino acids from L. citreum NRRL B-742 forming α-1,3 connections of glucosyl units on acceptors	no ability to produce polymers of glucosyl units		allows the glycosylation of oligosaccharides	26	lower than 25%	below 15%	~50%	about 40%	50%	
B1	no ability to produce polymers of glucosyl units			26					50%	same results
